Reference: patent US11786484B2, “Xanthohumol solubilizate” (Aquanova AG, priority 2018, dated 2023)

Legend:
[1] = tested on: total antioxidant capacity (TAC); assay: Adjuvant induced arthritis in rats: total antioxidant capacity (TAC) in serum; assay type: in vivo, Wistar rats; details: serum of arthritic rats (n=8), once daily for 21 days, mean ± SEM
Protocol: (§1) Anti-inflammatory markers and antioxidant capacity were determined. Female Wistar rats with a body weight between 150 and 200 g were exposed to adjuvant induced arthritis according to Pearson et al. (1956). At day 0, the animals were administered 0.1 ml of Freund's Adjuvant (FCA) in the right hind paw, by subplantar injection. The animals were randomly divided into 12 groups of 8 animals each.
(§2) All extracts or solubilizates were administered orally once daily from day 0 through day 21 following the vaccination with the adjuvant. After day 21, the animals were killed and serum samples were prepared and stored at −80° C. Measurements were made of myeloperoxidase (MPO), C-reactive protein (CRP), total antioxidant capacity (TAC), and thiobarbituratic acid reactive substances (TBARS).
(§3) Oxidative stress is one of the major factors contributing to joint destruction in rheumatoid arthritis (RA). An increase in the production of reactive oxygen species (ROS) leads to a reduced supply of endogenous antioxidants and ultimately results in the destruction of cells. The neutrophil granulocytes released in the rheumatoid joint produce free oxygen radicals which cause increased formation of lipid peroxides manifesting in an increase in serum TBARS. […]

[2] = tested on: thiobarbituric acid reactive substances TBARS; assay: Adjuvant induced arthritis in rats: TBARS in serum; assay type: in vivo, Wistar rats; details: serum of arthritic rats (n=8), once daily for 21 days, mean ± SEM
Protocol: as §1, §2, §3

[3] = tested on: myeloperoxidase (MPO); assay: Adjuvant induced arthritis in rats: serum MPO; assay type: in vivo, Wistar rats; details: arthritic rats, 5 mg/kg orally once daily day 0 through day 21; diclofenac 3 mg/kg as reference
Protocol: as §1, §2

[4] = tested on: alpha-smooth muscle actin (α-SMA); assay: Hepatic expression of alpha-smooth muscle actin in WTD mice (qPCR, immunohistochemistry); assay type: in vivo, mice of the strain C57BL/6; details: 2.5 mg/kg daily, 8 weeks
Description: (§4) Male mice of the strain C57BL/6 at an age of 8 weeks either received usual diet or were fed according to the “Western type diet” consisting of 15% pork lard, 15% beef tallow, 4% palmitic acid, 4% stearic acid, 0.2% cholesterol, and 30% sucrose. The control group (CTRL), which received the usual diet, was given an aqueous solution of methylhydroxypropyl cellulose (MHPC, 0.2%, Methocel™ E4M prem) (“vehicle” VH) as a therapy, as was the case with the “Western type diet” group (“WTD”).
(§5) Other groups received the xanthohumol solubilizate (“s-XN”) of the present Applicant or native xanthohumol (“n-XN”) in addition to the WTD. The therapy was conducted over 8 weeks.
(§6) RNA isolation from liver tissue, reverse transcription and quantitative real-time polymerase chain reaction (PCR) analysis were carried out using the “LightCycler” technology (Roche) and specific tests for primers, as described in Hellebrand et al.: “Promoter hypermethylation is causing functional relevant downregulation of methylthioadenosine phosphorylase (MTAP) expression in hepatocellular carcinoma”, Carcinogenesis 2006; 27:64-72.
The α-SMA protein is an established marker of activated hepatic stellate cells (HSC) which trigger liver cirrhosis. An immunohistochemical analysis of the α-SMA protein confirmed that WTD causes significant activation of HSC (FIG. 4B).

[5] = tested on: WTD fed mice; assay: Intraperitoneal glucose tolerance test (ipGTT) in WTD mice; assay type: in vivo, mice of the strain C57BL/6; details: 2.5 mg/kg daily, after seven weeks
Protocol: (§7) The medical faculty of Friedrich-Alexander University Erlangen Nürnberg (FAU) conducted studies on the effects of xanthohumol on body weight. A dose of 2.5 mg/kg body weight of xanthohumol was administered daily. For this purpose, a solubilizate of the present Applicant was used. It was prepared from 100 g “Xantho-Flav Pure”, 150 g of 96% ethanol, and 750 g of polysorbate 80. For adjusting the concentration to 0.375 mg/ml, the solubilizate was diluted with double-distilled water (“ddH2O”). The corresponding data are marked by “s-XN” in the accompanying figures.
(§8) For comparison, similar experiments were conducted with the same dose of native xanthohumol. For dissolving the native xanthohumol, an aqueous solution of methylhydroxypropyl cellulose (MHPC, 0.2%, Methocel E4M Premium CR, Hypromellose 2910 USP, Fragron Inc., Minnesota, USA) was used. The corresponding data are marked by “n-XN”. […]
After seven weeks of administration of the solubilizate or of native xanthohumol, an intraperitoneal glucose tolerance test (ipGTT) was carried out. […] The concentration of glucose in the blood was measured in samples that were taken from the tail vein prior to glucose administration (fasting glucose) as well as 30, 60, 80, and 120 minutes thereafter. […]

[6] = tested on: type 1 collagen (COL1A1); assay: Hepatic expression of type 1 collagen in WTD mice; assay type: in vivo, mice of the strain C57BL/6; details: 2.5 mg/kg daily, 8 weeks
Description: as §4, §5, §6
Type 1 collagen (COL1A1) is the most important extracellular matrix protein in liver fibrosis, both quantitatively and qualitatively.

[7] = tested on: C-reactive protein (CRP); assay: Adjuvant induced arthritis in rats: serum CRP; assay type: in vivo, Wistar rats; details: arthritic rats, 5 mg/kg orally once daily day 0 through day 21; diclofenac 3 mg/kg as reference
Protocol: as §1, §2

[8] = tested on: WTD fed mice; assay: Liver weight, hepatic triglyceride level and histology (steatosis) in WTD mice; assay type: in vivo, mice of the strain C57BL/6; details: 2.5 mg/kg daily, 8 weeks
Protocol: as §7, §8
To quantify liver lipids, the latter were extracted and the amount of triglycerides (“hepatic triglyceride level”) was determined using a “GPO-triglyceride kit” (Sigma, Deisenhofen, Germany), as described in Wobser et al.: “Lipid accumulation in hepatocytes induces fibrogenic activation of hepatic stellate cells”, Cell Res 2009; 19:996-1005. […]

| Structure (SMILES) | TAC [1] [nmol/µL] | TBARS [2] [nmol/L] | effect on the serum concentration of MPO, in words [3] | WTD-induced expression of α-SMA [4] | fasting glucose values ([5]; 12 hours of fasting) | glucose tolerance ([5]; ipGTT 3 mg glucose per gram body weight) | WTD-induced expression of type 1 collagen [6] | effect on CRP serum level, in words [7] | steatosis (liver appearance, histological examinations) [8] |
| --- | --- | --- | --- | --- | --- | --- | --- | --- | --- |
| O=C(O)Cc1ccccc1Nc1c(Cl)cccc1Cl [Diclofenac, diclofenac] | 82.08 ± 2.96 | 7.93 ± 0.84 | – | – | – | – | – | – | – |
| COc1cc(O)c(CC=C(C)C)c(O)c1C(=O)/C=C/c1ccc(O)cc1 [native xanthohumol, xanthohumol] | 63.71 ± 1.02 | 11.42 ± 1.16 | only a slight effect | hardly any effects | did not bring about this effect | did not bring about this effect | hardly any effects | effect comparable to that of diclofenac | accumulation of fat in the liver (steatosis) |
